Assay [1] addresses T1, Axl (Homo sapiens, UniProt P30530).
T1 sequence (P30530 26-894): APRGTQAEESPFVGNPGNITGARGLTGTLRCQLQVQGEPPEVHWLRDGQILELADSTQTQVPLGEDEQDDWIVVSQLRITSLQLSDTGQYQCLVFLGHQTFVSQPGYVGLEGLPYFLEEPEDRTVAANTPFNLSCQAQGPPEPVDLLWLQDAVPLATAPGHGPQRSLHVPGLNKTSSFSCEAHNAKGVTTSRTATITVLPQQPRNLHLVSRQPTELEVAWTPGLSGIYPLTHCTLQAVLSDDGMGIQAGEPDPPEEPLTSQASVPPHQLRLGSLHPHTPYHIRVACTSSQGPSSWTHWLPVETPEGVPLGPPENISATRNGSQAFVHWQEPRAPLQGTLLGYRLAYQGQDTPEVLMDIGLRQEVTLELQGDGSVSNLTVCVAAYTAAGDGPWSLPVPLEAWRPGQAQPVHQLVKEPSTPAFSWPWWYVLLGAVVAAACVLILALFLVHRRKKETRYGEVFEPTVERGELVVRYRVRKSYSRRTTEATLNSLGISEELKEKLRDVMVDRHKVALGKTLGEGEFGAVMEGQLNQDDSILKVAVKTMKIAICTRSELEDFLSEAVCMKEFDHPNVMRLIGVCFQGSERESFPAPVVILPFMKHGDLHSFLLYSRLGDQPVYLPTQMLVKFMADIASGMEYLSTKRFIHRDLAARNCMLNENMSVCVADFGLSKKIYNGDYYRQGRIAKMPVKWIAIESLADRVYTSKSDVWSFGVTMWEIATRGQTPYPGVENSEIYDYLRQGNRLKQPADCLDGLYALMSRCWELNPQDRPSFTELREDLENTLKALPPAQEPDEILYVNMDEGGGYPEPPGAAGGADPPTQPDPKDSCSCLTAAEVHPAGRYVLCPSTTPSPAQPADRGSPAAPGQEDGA
As to the kind of experiment: HTRF KinEASE-TK biochemical potency assay, AXL. Further details: purchased Invitrogen. The settings on record: 5 nM AXL, 700 μM ATP, 800 nM TK Substrate-biotin. On the procedure: Purified recombinant human AXL, TYRO3 and MER proteins were purchased from Invitrogen™. 10 nM AXL, 2 nM TYRO3 or MER were incubated with varying concentrations of compounds in 50 mM HEPES, pH 7.4, 10 mM MgCl2, 0.01% BSA, 1 mM DTT and 2% DMSO in a total volume of 20 μl in a 384-well microplate (Corning™ #3640) at RT for 1 h. The AXL, TYRO3 and MER enzymatic reaction was initiated by transferring 10 μl of enzyme and compound mixture into 10 μl of 1.6 μM TK Substrate-biotin (HTRF® KinEASE-TK kit, Cisbio) and 1400 μM ATP pre-incubated in 50 mM HEPES, pH 7.4, 10 mM MgCl2, 0.01% BSA, 1 mM DTT in a 384-well microplate (Corning™ #3640) at RT, giving the final reaction conditions: 5 nM AXL, 1 nM TYRO3 or MER, 800 nM TK Substrate-biotin and 700 μM ATP in 50 mM HEPES, pH 7.4, 10 mM MgCl2, 0.01% BSA, 1 mM DTT and 1% DMSO with varying concentrations of compounds. Following 2 h incubation at RT, the AXL, TYRO3 and MER enzymatic reaction was stopped by transfer of 10 μl of reaction into 10 μl of detection mix (400 nM Streptavidin-XL665, 200-fold dilution TK Antibody-Cryptate and detection buffer, HTRF® KinEASE-TK kit, Cisbio) in a white 384-well microplate (Perkin Elmer, OptiPlate 384). After 1 h incubation at RT, the plate was put into a plate reader (Evision) to read at 665/620 nm (acceptor/donor) for HTRF. The value of the DMSO blank (MIN inhibition=100% activity) was used as a negative control. The positive control was established by adding 5 μl of enzyme and DMSO mixture into 10 μl of detection mix followed by addition of 5 μl of TK Substrate-biotin and ATP mixture (MAX inhibition=0% activity). To calculate the percent activity, Equation 1 was used. Ratio 665/620 is the value at a given compound concentration: […]
In general terms: In TR-FRET formats the signal depends on donor and acceptor labels being close together.

Assay [2] deals with T1, Axl. As to the kind of experiment: Axl NanoBRET intracellular kinase assay (intracellular binding, Cell Binding). The arrangement: host or cells: HEK-293. The settings on record: HEK-293 cells transfected with Axl-NanoLuc fusion vector; 0.35 μM K-5 NanoBRET tracer. On the procedure:
Axl NanoBRET™ intracellular kinase assay (Promega, N2540) was performed according to manufacturer's recommendation. In brief, HEK-293 cells are transiently transfected with Axl-NanoLuc fusion vector (Promega, NV1071), utilizing Fugene HD transfection reagent (Promega, E2311) a day before experiment following manufacturer's recommendation.
The day of the assay, the cells were collected and resuspended in Opti-MEM media (ThermoFisher, 31985070) at 2e5 cells/mL concentration. Testing compounds were serial diluted and dispensed into a white 384 well polystyrene plate at 200 nL in 100% DMSO. 40 μL of resuspended cells is then added per well for a final condition of 8K cells/well with 0.5% DMSO. After one-hour compound pre-incubation at 37° C. and 5% CO2, cells were further incubated with 0.35 μM K-5 NanoBRET tracer for two-hours at 37° C. and 5% CO2. […] of 3× substrate plus Inhibitor solution was prepared according to kits manual and added to the cells followed by a 30 second pulse centrifugation spin. The plate was then immediately read utilizing an Envision (Perkin Elmer) plate reader. The BRET signal is measured by taking the ratio of the emissions reading at 610 nm and 450 nm. Compound binding is based on the decrease BRET signal caused by the displacement of the K-5 tracer. […] IC50 value of compounds was determined by 4-parameter non-linear regression fitting of percent activity in GraphPad Prism software.
(BRET reads energy transfer from a luciferase to a nearby fluorophore.)

With `C[C@H]1CCCN1C1CCc2ccc(-c3cnc4[nH]nc(-c5ccc(S(=O)(=O)C6CC6)cc5)c4c3)cc2CC1` (stereo partly drawn) [Example 24, 3-(4-(Cyclopropylsulfonyl)phenyl)-5-(7-((S)-2-methylpyrrolidin-1-yl)-6,7,8,9-tetrahydro-5H-benzo[7]annulen-2-yl)-1H-pyrazolo[3,4-b]pyridine], the IC50 on Axl [1] and at Axl [2] was less than 100 nM each time.

`C[C@@H]1CCCN1C1(C)CCc2ccc(-c3cnc4[nH]nc(-c5ccc(S(=O)(=O)C6CC6)c(F)c5)c4c3)cc2CC1` (stereo partly drawn) [Example 25, (2R)-1-(2-{3-[4-(Cyclopropanesulfonyl)-3-fluorophenyl]-1H-pyrazolo[3,4-b]pyridin-5-yl}-7-methyl-6,7,8,9-tetrahydro-5H-benzo[7]annulen-7-yl)-2-methylpyrrolidine]: the half-inhibitory concentration (IC50) on Axl [1] and at Axl [2] was less than 100 nM each time.

On to `O=S(=O)(c1ccc(-c2n[nH]c3ncc(-c4ccc5c(c4)CCN(C4CCOCC4)CC5)cc23)cc1)C1CC1` [Example 26, 7-{3-[4-(Cyclopropanesulfonyl)phenyl]-1H-pyrazolo[3,4-b]pyridin-5-yl}-3-(oxan-4-yl)-2,3,4,5-tetrahydro-1H-3-benzazepine], for which the half-inhibitory concentration (IC50) is less than 100 nM against Axl [1] and 100 to 1000 nM on Axl [2].

`O=S(=O)(c1ccc(-c2n[nH]c3ncc(-c4ccc5c(c4)CCN(CC4CCOC4)CC5)cc23)cc1)C1CC1` (stereo not drawn) [Example 27, 7-{3-[4-(Cyclopropanesulfonyl)phenyl]-1H-pyrazolo[3,4-b]pyridin-5-yl}-3-[(oxolan-3-yl)methyl]-2,3,4,5-tetrahydro-1H-3-benzazepine]: the IC50 is less than 100 nM against Axl [1] and 100 to 1000 nM on Axl [2].

As for `CS(=O)(=O)c1ccc(-c2n[nH]c3ncc(-c4ccc5c(c4)CCN(C4CCCC4)CC5)cc23)cc1` [Example 30, 3-Cyclopentyl-7-(3-(4-(methylsulfonyl)phenyl)-1H-pyrazolo[3,4-b]pyridin-5-yl)-2,3,4,5-tetrahydro-1H-benzo[d]azepine], the IC50 against Axl [1] was less than 100 nM; at Axl [2], 100 to 1000 nM.

Turning to `CS(=O)(=O)c1ccc(-c2n[nH]c3ncc(-c4ccc5c(c4)CCN(C4CCCC4)CC5)cc23)cc1Cl` [Example 31, 7-(3-(3-Chloro-4-(methylsulfonyl)phenyl)-1H-pyrazolo[3,4-b]pyridin-5-yl)-3-cyclopentyl-2,3,4,5-tetrahydro-1H-benzo[d]azepine], the half-maximal inhibitory concentration (IC50) is less than 100 nM on Axl [1] and 100 to 1000 nM at Axl [2].

In the case of `CS(=O)(=O)c1ccc(-c2n[nH]c3ncc(-c4ccc5c(c4)CCN(C4CCCC4)CC5)cc23)cc1F` [Example 32, 3-Cyclopentyl-7-(3-(3-fluoro-4-(methylsulfonyl)phenyl)-1H-pyrazolo[3,4-b]pyridin-5-yl)-2,3,4,5-tetrahydro-1H-benzo[d]azepine], the 50% inhibitory concentration (IC50) was less than 100 nM on Axl [1] and 100 to 1000 nM on Axl [2].

On to `COCCN1CCc2ccc(-c3cnc4[nH]nc(-c5ccc(C(C)(C)O)c(Cl)c5)c4c3)cc2CC1` [Example 34, 2-(2-Chloro-4-(5-(3-(2-methoxyethyl)-2,3,4,5-tetrahydro-1H-benzo[d]azepin-7-yl)-1H-pyrazolo[3,4-b]pyridin-3-yl)phenyl)propan-2-ol], for which the IC50 is less than 100 nM against Axl [1] and greater than 1000 nM on Axl [2].

Regarding `C[C@@H]1CCCN1C1CCc2ccc(-c3cnc4[nH]nc(-c5ccc(C(C)(C)O)c(Cl)c5)c4c3)cc2CC1` (stereo partly drawn) [Example 35, 2-(2-Chloro-4-(5-(7-((R)-2-methylpyrrolidin-1-yl)-6,7,8,9-tetrahydro-5H-benzo[7]annulen-2-yl)-1H-pyrazolo[3,4-b]pyridin-3-yl)phenyl)propan-2-ol], the IC50 at Axl [1] and at Axl [2] was less than 100 nM in each case.

Turning to `C[C@H]1CCCN1C1CCc2ccc(-c3cnc4[nH]nc(-c5ccc(S(C)(=O)=O)cc5)c4c3)cc2CC1` (stereo partly drawn) [Example 36, 5-(7-((S)-2-Methylpyrrolidin-1-yl)-6,7,8,9-tetrahydro-5H-benzo[7]annulen-2-yl)-3-(4-(methylsulfonyl)phenyl)-1H-pyrazolo[3,4-b]pyridine], the IC50 on Axl [1] and at Axl [2] was less than 100 nM each time.

Take `C[C@H]1CCCN1C1CCc2ccc(-c3cnc4[nH]nc(-c5ccc(C(C)(C)O)c(Cl)c5)c4c3)cc2CC1` (stereo partly drawn) [Example 37, 2-(2-Chloro-4-(5-(7-((S)-2-methylpyrrolidin-1-yl)-6,7,8,9-tetrahydro-5H-benzo[7]annulen-2-yl)-1H-pyrazolo[3,4-b]pyridin-3-yl)phenyl)propan-2-ol]: the IC50 on Axl [1] and at Axl [2] was less than 100 nM throughout.

As for `C[C@@H]1CCCN1C1CCc2ccc(-c3cnc4[nH]nc(-c5ccc(S(C)(=O)=O)cc5)c4c3)cc2CC1` (stereo partly drawn) [Example 38, 5-(7-((R)-2-Methylpyrrolidin-1-yl)-6,7,8,9-tetrahydro-5H-benzo[7]annulen-2-yl)-3-(4-(methylsulfonyl)phenyl)-1H-pyrazolo[3,4-b]pyridine], the IC50 against Axl [1] and at Axl [2] was less than 100 nM throughout.

As to `C[C@@H]1CCCN1C1CCc2ccc(-c3cnc4[nH]nc(-c5ccc(S(=O)(=O)C6CC6)cc5)c4c3)cc2CC1` (stereo partly drawn) [Example 39, 3-(4-(Cyclopropylsulfonyl)phenyl)-5-(7-((R)-2-methylpyrrolidin-1-yl)-6,7,8,9-tetrahydro-5H-benzo[7]annulen-2-yl)-1H-pyrazolo[3,4-b]pyridine], the IC50 against Axl [1] and at Axl [2] was less than 100 nM in each case.

For the compound `O=S(=O)(c1ccc(-c2n[nH]c3ncc(-c4ccc5c(c4)CC[C@@H](N4CCCC4)CC5)cc23)cc1)C1CC1` [Example 40, (S)-3-(4-(Cyclopropylsulfonyl)phenyl)-5-(7-(pyrrolidin-1-yl)-6,7,8,9-tetrahydro-5H-benzo[7]annulen-2-yl)-1H-pyrazolo[3,4-b]pyridine], the IC50 against Axl [1] and on Axl [2] was less than 100 nM throughout.

For `CCS(=O)(=O)c1ccc(-c2n[nH]c3ncc(-c4ccc5c(c4)CC[C@@H](N4CCCC4)CC5)cc23)cc1` [Example 41, (S)-3-(4-(Ethylsulfonyl)phenyl)-5-(7-(pyrrolidin-1-yl)-6,7,8,9-tetrahydro-5H-benzo[7]annulen-2-yl)-1H-pyrazolo[3,4-b]pyridine], the IC50 against Axl [1] and on Axl [2] was less than 100 nM throughout.

As a reminder, the IC50 is the midpoint of a concentration-inhibition curve. Low values mean higher potency, high ones lower potency.

These data come from US20240246967A1, “AXL COMPOUNDS” (ARCUS BIOSCIENCES, INC., priority 2021, published 2024).
